These results are taken from ChEMBL document CHEMBL1201862, “PubChem BioAssay data set” (2004).

Among the test systems are IGROV-1; OVCAR-5; UO-31; SK-OV-3; SW-620; TK-10; UACC-257; OVCAR-8; HT-29; NCI-H23; SN12C; HCT-15; Malme-3M; T47D; A498; SF-295; HOP-62; MDA-MB-231; 786-0; MOLT-4.
Holding throughout (test): NCI tumour cell line growth inhibition, 48 h

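All cell lines were grown in 96-well plates and treated with compound for 48 hours. Here, GI50 denotes the concentration required for 50% inhibition of growth.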 Active and inactive are the calls of the source. Cut-off read from the data, not from the text of the source: active = GI50 up to about 1.1 µM and inactive = higher.

`CN(C)CCCc1c[nH]c2ccccc12`: the GI50 in the test on IGROV-1, with OVCAR-5, in the test with UO-31, with SK-OV-3, in the test with SW-620 and with TK-10 was > 100 µM (inactive) each time. Moreover, the GI50 in the test on UACC-257 is > 100 µM (inactive); in the test with OVCAR-8, > 100 µM (inactive); in the test on HT-29 it was > 100 µM (inactive); in the test on NCI-H23 it was > 100 µM (inactive); in the test on SN12C, > 100 µM (inactive); in the test with HCT-15 it was over 100 µM. In addition, the GI50 in the test on Malme-3M, in the test on T47D, in the test with A498, in the test on SF-295, in the test on HOP-62 and with MDA-MB-231 was > 100 µM (inactive) in each case. Moreover, the GI50 in the test with 786-0 and in the test with MOLT-4 was > 100 µM (inactive) throughout.

Consider `CC(C)=CCC/C(C)=C/CO` [GERANIOL], for which the GI50 in the test with IGROV-1, in the test with OVCAR-5, in the test with UO-31, with SK-OV-3, in the test on SW-620 and with TK-10 was > 100 µM (inactive) in each case. The GI50 in the test on UACC-257 was > 100 µM (inactive); in the test on OVCAR-8 it was > 100 µM (inactive); with HT-29, > 100 µM (inactive); in the test with NCI-H23 it was > 100 µM (inactive); in the test with SN12C it was > 100 µM (inactive); in the test with HCT-15, over 100 µM. The GI50 with Malme-3M, with T47D, in the test with A498, with SF-295, in the test on HOP-62 and in the test with MDA-MB-231 was > 100 µM (inactive) throughout. The GI50 with 786-0 and in the test on MOLT-4 was > 100 µM (inactive) in each case.

For the compound `COC(=O)c1ccccc1C1CN=NC12Cc1c(C)ccc(C)c1C2=O` (stereo not given), the GI50 in the test with IGROV-1, in the test with OVCAR-5, in the test with UO-31, in the test with SK-OV-3, in the test on SW-620 and in the test with TK-10 was > 100 µM (inactive) throughout. The GI50 was > 100 µM (inactive) in the test with UACC-257; > 100 µM (inactive) with OVCAR-8; > 100 µM (inactive) in the test on HT-29; > 100 µM (inactive) with NCI-H23; > 100 µM (inactive) in the test with SN12C; over 100 µM with HCT-15. For the same compound, the GI50 in the test with Malme-3M is 36.6 µM (inactive); in the test with T47D, > 100 µM (inactive); with A498, > 100 µM (inactive); in the test on SF-295, > 100 µM (inactive); with HOP-62, > 100 µM (inactive); with MDA-MB-231, > 100 µM (inactive). For the same compound, the results for the GI50 in the test on 786-0 and in the test on MOLT-4 were > 100 µM (inactive) and 88.5 µM (inactive), respectively.

For `CNC(=S)N1CCN(C(C)=O)C1=S`, the GI50 is 44.9 µM (inactive) with IGROV-1; > 100 µM (inactive) with OVCAR-5; 50.7 µM (inactive) in the test on UO-31; 66.8 µM (inactive) in the test with SK-OV-3; 86.5 µM (inactive) in the test with SW-620; > 100 µM (inactive) in the test on TK-10. Further, the GI50 in the test on UACC-257 is 70.6 µM (inactive); in the test on OVCAR-8, 92.5 µM (inactive); in the test on HT-29, 67.8 µM (inactive); in the test with NCI-H23 it was 27.7 µM (inactive); in the test on SN12C, 57.7 µM (inactive); with HCT-15, 34.4 µM. The GI50 with Malme-3M is 12.7 µM (inactive); in the test on T47D, 19.5 µM (inactive); with A498, 35.6 µM (inactive); in the test on SF-295, 25.4 µM (inactive); with HOP-62, 70.5 µM (inactive); with MDA-MB-231, 4.27 µM (inactive). Also, the GI50 in the test on 786-0 was > 100 µM (inactive); with MOLT-4, 30.8 µM (inactive).

For `CC[P+](c1ccccc1)(N(C)C)N(C)C`, the GI50 in the test with IGROV-1, in the test with OVCAR-5, with UO-31, in the test with SK-OV-3, in the test on SW-620 and in the test with TK-10 was > 100 µM (inactive) throughout. Also, the GI50 in the test with UACC-257 was > 100 µM (inactive); in the test on OVCAR-8, > 100 µM (inactive); in the test on HT-29 it was > 100 µM (inactive); with NCI-H23, > 100 µM (inactive); in the test on SN12C it was > 100 µM (inactive); in the test with HCT-15, over 100 µM. The GI50 in the test on Malme-3M, in the test with T47D, in the test on A498, in the test on SF-295, in the test with HOP-62 and in the test on MDA-MB-231 was > 100 µM (inactive) each time. For the same compound, the GI50 in the test with 786-0 and in the test with MOLT-4 was > 100 µM (inactive) in each case.

For `COc1c(O)c2ccccc2c2cc(O)ccc12`, the GI50 in the test on IGROV-1 is 9.57 µM (inactive); in the test on OVCAR-5, 13.4 µM (inactive); in the test with UO-31 it was 4.04 µM (inactive); in the test on SK-OV-3 it was 20.5 µM (inactive); in the test on SW-620 it was 3.18 µM (inactive); in the test on TK-10, 25.4 µM (inactive). For the same compound, the GI50 in the test with UACC-257 was 2.1 µM (inactive); in the test on OVCAR-8, 3.88 µM (inactive); in the test on HT-29 it was 21 µM (inactive); in the test with NCI-H23, 2.86 µM (inactive); with SN12C, 5.2 µM (inactive); in the test with HCT-15, 6.34 µM. The GI50 in the test with Malme-3M was 1.66 µM (inactive); with T47D, 13.5 µM (inactive); in the test on A498 it was 8.45 µM (inactive); with SF-295, 10 µM (inactive); with HOP-62, 10.6 µM (inactive); in the test on MDA-MB-231 it was 3.91 µM (inactive). Besides, the GI50 with 786-0 is 12.2 µM (inactive); in the test on MOLT-4, 8.61 µM (inactive).

For `O=S(=O)(O)c1ccc2c(/N=N/c3cccc4ccccc34)c(O)ccc2c1`, the GI50 in the test with IGROV-1, in the test on OVCAR-5, in the test with UO-31, in the test with SK-OV-3, in the test with SW-620 and in the test on TK-10 was > 100 µM (inactive) in each case. Also, the GI50 with UACC-257 is > 100 µM (inactive); in the test on OVCAR-8 it was > 100 µM (inactive); in the test on HT-29, > 100 µM (inactive); with NCI-H23 it was > 100 µM (inactive); in the test on SN12C, > 100 µM (inactive); in the test on HCT-15, over 100 µM. The GI50 was > 100 µM (inactive) with Malme-3M; > 100 µM (inactive) in the test with T47D; > 100 µM (inactive) with A498; 39.1 µM (inactive) in the test with SF-295; > 100 µM (inactive) with HOP-62; > 100 µM (inactive) in the test with MDA-MB-231. Besides, the GI50 in the test on 786-0 and with MOLT-4 was > 100 µM (inactive) throughout.
